What was measured:
[1] = molecular target: T1, BACE1 (Homo sapiens, UniProt P56817); assay: In Vitro BACE Cell-based Assay (HEK cell assay): Aβ40 in conditioned medium of cells stably expressing Amyloid Precursor Protein, sandwich ELISA
Method in brief: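 Read-out is time-resolved fluorescence of Aβ40 in supernatant, captured by pAb40 and detected with biotinylated 6E10 plus Streptavidin-Europium. Cells stably expressing APP received compounds for 24 h over 10 concentrations starting at 100 μM or 10 μM, final DMSO 0.1%.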

[2] = molecular target: T1, BACE1; assay: In Vitro Enzymatic BACE FRET (Fluorescence Resonance Energy Transfer) Assay; assay type: biochemical
Method in brief: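 One-hour incubation initiated by 50 nM quenched FRET peptide spanning the BACE cleavage site, in 0.05 M acetate (pH 4.2), 100 uM genapol, 10% DMSO final. Tris addition neutralizes pH to end the reaction before fluorescence measurement.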

[3] = HEK cell-based assay, Aβ40 in conditioned medium, IC50 class symbols, read-out: HEK cell assay
[4] = in vitro BACE FRET enzyme assay, IC50 class symbols, read-out: BACE1 FRET assay
[5] = Table IV, class symbols, read-out: HEK cell assay
[6] = Table IV, class symbols, read-out: BACE1 FRET assay
[7] = Table III, IC50's in uM ranges, read-out: HEK cell assay
[8] = Table III, IC50's in uM ranges, read-out: BACE1 FRET assay
[9] = HEK cells, read-out: HEK cell assay
[10] = Table 1, Aβ40, 24 h incubation, read-out: HEK cell assay
[11] = Table 1, read-out: BACE1 FRET assay

T1 sequence (P56817 46-501, species assumed): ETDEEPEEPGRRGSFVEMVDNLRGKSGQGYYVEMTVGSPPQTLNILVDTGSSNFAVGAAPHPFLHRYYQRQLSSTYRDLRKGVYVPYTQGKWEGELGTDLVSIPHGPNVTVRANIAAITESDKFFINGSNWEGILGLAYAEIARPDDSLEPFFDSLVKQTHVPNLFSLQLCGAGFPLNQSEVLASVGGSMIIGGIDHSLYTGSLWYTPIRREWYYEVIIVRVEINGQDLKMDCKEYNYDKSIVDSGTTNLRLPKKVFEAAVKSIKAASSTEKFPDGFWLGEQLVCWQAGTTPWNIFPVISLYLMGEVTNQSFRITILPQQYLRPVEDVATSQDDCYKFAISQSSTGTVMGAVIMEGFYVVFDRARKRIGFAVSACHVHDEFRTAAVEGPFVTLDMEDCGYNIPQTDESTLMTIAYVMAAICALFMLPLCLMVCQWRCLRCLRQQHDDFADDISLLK

NC1=N[C@@]2(CO1)c1cc(-c3cccnc3)ccc1Oc1c(F)cc(OCC(=O)C3CC3)cc12 [compound 387]
IC50 [1, 3]: < 0.1 µM | IC50 [2, 4]: < 0.1 µM

NC1=N[C@@]2(CO1)c1cc(-c3cccnc3)ccc1Oc1ccc(-c3csc(N4CCCC4)n3)cc12 [compound 624]
IC50 [1, 5]: 1 to 5 µM | IC50 [2, 6]: 0.1 to 1 µM

CC(C)(C#N)COc1ccc2c(c1)[C@]1(COC(N)=N1)c1cc(-c3cccnc3)ccc1O2 [Example 134, (S)-3-(2-amino-2′-(pyridin-3-yl)-5H-spiro[oxazole-4,9′-xanthene]-7′-yloxy)-2,2-dimethylpropanenitrile]
IC50 [1, 7]: < 0.1 µM | IC50 [2, 8]: < 0.1 µM

NC1=N[C@@]2(CO1)c1cc(-c3cncnc3)ccc1Oc1ccc(N3CCOC4(CCCC4)C3)cc12 [compound 462]
IC50 [1, 9]: 0.1 to 1 µM | IC50 ([2]; read-out: BACE1 FRET assay): < 0.1 µM

CC(C)(C)COc1ccc2c(c1)[C@]1(COC(N)=N1)c1cc(C3CCCCO3)ccc1O2 (stereo partly drawn) [compound 656]
IC50 [1, 5]: 0.1 to 1 µM | IC50 [2, 6]: < 0.1 µM

CC(C)(C)COc1ccc2c(c1)[C@@]1(COC(N)=N1)c1cc(-c3cncnc3)cc(F)c1O2 [155a]
IC50 [1, 7]: 0.1 to 1 µM | IC50 [2, 8]: < 0.1 µM

NC1=N[C@]2(CO1)c1cc(OCC(C(F)(F)F)C(F)(F)F)ccc1Oc1ccc(-c3cncnc3)cc12 [compound 163]
IC50 [1, 7]: 0.1 to 1 µM | IC50 [2, 8]: 0.1 to 1 µM

NC1=N[C@@]2(CO1)c1cc(-c3cccnc3)ccc1Oc1cnc([C@@H]3CCCCO3)cc12 [compound 696]
IC50 ([1]; read-out: HEK cell assay): < 0.1 µM | IC50 ([2]; read-out: BACE1 FRET assay): < 0.1 µM

COc1ccc2c(c1)[C@]1(COC(N)=N1)c1cc(NC(=O)[C@@H](C)OC)ccc1O2 [compound 536]
IC50 [1, 5]: 0.1 to 1 µM | IC50 [2, 6]: 0.1 to 1 µM

NC1=N[C@@]2(CO1)c1cc(-c3cccnc3N3CCOCC3)ccc1Oc1cnc(Cl)cc12 [compound 337]
IC50 [1, 3]: > 5 µM | IC50 [2, 4]: 1 to 5 µM

CCCOc1cc2c(cc1F)Oc1ccc(-c3cncnc3)cc1[C@@]21COC(N)=N1 [compound 940]
IC50 ([1]; read-out: HEK cell assay): < 0.1 µM | IC50 ([2]; read-out: BACE1 FRET assay): < 0.1 µM

NC1=N[C@@]2(CO1)c1cc(-c3cccnc3F)ccc1Oc1cnc(-c3ccncc3)cc12 [Example 515, (5S)-7-(2-fluoro-3-pyridinyl)-3-(4-pyridinyl)spiro[chromeno[2,3-c]pyridine-5,4′-[1,3]oxazol]-2′-amine]
IC50 ([1]; HEK cell assay (uM), HEK cells): < 0.1 µM | IC50 ([2]; BACE1 FRET assay (uM)): < 0.1 µM

CN(C)c1ncc(-c2ccc3c(c2)[C@@]2(COC(N)=N2)c2cc(OCC(C)(C)C)ccc2O3)cn1 [compound 838]
IC50 [1, 5]: > 5 µM | IC50 [2, 6]: > 5 µM

Cc1cc(-c2ccc3c(c2)[C@]2(COC(N)=N2)c2cc(-c4cccnc4)ccc2O3)on1 [compound 693]
IC50 ([1]; read-out: HEK cell assay): < 0.1 µM | IC50 ([2]; read-out: BACE1 FRET assay): < 0.1 µM

COc1ccc2c(c1)C1(COC(N)=N1)c1cc(-c3cncnc3)ccc1O2 (stereo not drawn) [Example 14, 2′-methoxy-7′-(5-pyrimidinyl)spiro[1,3-oxazole-4,9′-xanthen]-2-amine]
IC50 [1, 10]: 1 to 5 µM | IC50 [2, 11]: 0.1 to 1 µM

NC1=N[C@]2(CO1)c1cc(C3=CCOCC3)ccc1Oc1ccc(-c3cccnc3)cc12 [compound 715]
IC50 ([1]; read-out: HEK cell assay): < 0.1 µM | IC50 ([2]; read-out: BACE1 FRET assay): < 0.1 µM

NC1=N[C@]2(CO1)c1cc(Oc3ccccn3)ccc1Oc1ccc(-c3cccnc3)cc12 [compound 207]
IC50 [1, 7]: 0.1 to 1 µM | IC50 [2, 8]: 0.1 to 1 µM

NC1=N[C@]2(CO1)c1cc(OCC3CCOCC3)ccc1Oc1ccc(-c3cncnc3)cc12 [compound 175]
IC50 [1, 7]: < 0.1 µM | IC50 [2, 8]: < 0.1 µM

CC1(COc2cnc3c(c2)[C@]2(COC(N)=N2)c2cc(-c4ccccc4Cl)ccc2O3)COC1 [compound 414]
IC50 [1, 3]: 0.1 to 1 µM | IC50 [2, 4]: < 0.1 µM

COC(C)(C)C#Cc1cc(F)c2c(c1)[C@]1(COC(N)=N1)c1cc(-c3ccc(F)nc3)ccc1O2 [compound 646]
IC50 [1, 5]: < 0.1 µM | IC50 [2, 6]: < 0.1 µM

NC1=N[C@]2(CO1)c1cc(CC(=O)O)ccc1Oc1ccc(-c3cncnc3)cc12 [compound 751]
IC50 ([1]; read-out: HEK cell assay): > 5 µM | IC50 ([2]; read-out: BACE1 FRET assay): 0.1 to 1 µM

COc1ccc2c(c1)C1(COC(N)=N1)c1cc(-c3ccc(OC(F)(F)F)cc3)ccc1O2 (stereo not drawn) [Example 27, 2′-methoxy-7′-(4-(trifluoromethoxy)phenyl)spiro[1,3-oxazole-4,9′-xanthen]-2-amine]
IC50 [1, 10]: 1 to 5 µM | IC50 [2, 11]: > 5 µM

COc1ccc2c(c1)[C@]1(COC(N)=N1)c1cc(-c3cccc4cccnc34)ccc1O2 [compound 590]
IC50 [1, 5]: 1 to 5 µM | IC50 [2, 6]: 1 to 5 µM

CC1(C)CN(c2ccc3c(c2)[C@]2(COC(N)=N2)c2cc(-c4cncnc4)ccc2O3)C1 [compound 561]
IC50 [1, 5]: < 0.1 µM | IC50 [2, 6]: < 0.1 µM

NC1=N[C@]2(CO1)c1cc(CCC3(O)CCC3)ccc1Oc1ccc(-c3cccnc3)cc12 [compound 859]
IC50 [1, 5]: < 0.1 µM | IC50 [2, 6]: < 0.1 µM

NC1=N[C@@]2(CO1)c1cc(Br)ccc1Oc1ccc(-c3cccnc3)cc12 [compound 876]
IC50 [1, 5]: 1 to 5 µM | IC50 [2, 6]: 0.1 to 1 µM

NC1=N[C@]2(CO1)c1cc(Oc3ccccn3)ccc1Oc1ccc(-c3cncnc3)cc12 [compound 209]
IC50 [1, 7]: 0.1 to 1 µM | IC50 [2, 8]: < 0.1 µM

NC1=N[C@@]2(CO1)c1cc(-c3cc(Cl)ccc3F)ccc1Oc1cnc(C3=CCOCC3)cc12 [compound 424]
IC50 [1, 9]: < 0.1 µM | IC50 ([2]; read-out: BACE1 FRET assay): < 0.1 µM

COc1cc(F)c2c(c1)[C@@]1(COC(N)=N1)c1cc(-c3cncnc3)ccc1O2 [compound 582]
IC50 [1, 5]: > 5 µM | IC50 [2, 6]: 1 to 5 µM

CC(C)(F)COc1cc2c(cc1F)Oc1ccc(-c3cccnc3)cc1[C@@]21COC(N)=N1 [compound 353, (4S)-3′-fluoro-2′-(2-fluoro-2-methylpropoxy)-7′-(3-pyridinyl)spiro[1,3-oxazole-4,9′-xanthen]-2-amine]
IC50 [1, 3]: < 0.1 µM | IC50 [2, 4]: < 0.1 µM

CC(C)(C)OC(=O)Cc1ccc2c(c1)[C@@]1(COC(N)=N1)c1cc(Br)ccc1O2 [compound 858]
IC50 [1, 5]: > 5 µM | IC50 [2, 6]: > 5 µM

CC(C)(C)CCc1ccc2c(c1)[C@@]1(COC(N)=N1)c1cc(-c3ccc(F)nc3)ccc1O2 [153a]
IC50 [1, 7]: 0.1 to 1 µM | IC50 [2, 8]: < 0.1 µM

CC(C)(C)COc1ccc2c(c1)[C@]1(COC(N)=N1)c1cc(-c3ccc(C#N)cc3)ccc1O2 [compound 972]
IC50 ([1]; read-out: HEK cell assay): > 5 µM | IC50 ([2]; read-out: BACE1 FRET assay): 0.1 to 1 µM

CC(C)(C)COc1ccc2c(c1)[C@@]1(COC(N)=N1)c1cc(-c3cccnc3F)cnc1O2 [compound 952]
IC50 ([1]; read-out: HEK cell assay): < 0.1 µM | IC50 ([2]; read-out: BACE1 FRET assay): < 0.1 µM

CC(C)(C)COc1ccc2c(c1)[C@]1(COC(N)=N1)c1ccccc1O2 [compound 655]
IC50 [1, 5]: > 5 µM | IC50 [2, 6]: 1 to 5 µM

CN(C)c1ncc(-c2ccc3c(c2)[C@]2(COC(N)=N2)c2cc(OCC(C)(C)C)ccc2O3)cn1 [compound 780]
IC50 ([1]; read-out: HEK cell assay): 1 to 5 µM | IC50 ([2]; read-out: BACE1 FRET assay): 0.1 to 1 µM

CC1(COc2ccc3c(c2)[C@@]2(COC(N)=N2)c2cc(-c4ccccc4)cnc2O3)COC1 [compound 966, (5S)-7-((3-methyl-3-oxetanyl)methoxy)-3-phenylspiro[chromeno[2,3-b]pyridine-5,4′-[1,3]oxazol]-2′-amine]
IC50 ([1]; read-out: HEK cell assay): < 0.1 µM | IC50 ([2]; read-out: BACE1 FRET assay): < 0.1 µM

CC(C)(C#N)COc1cnc2c(c1)[C@]1(COC(N)=N1)c1cc(-c3cccnc3)ccc1O2 [compound 410]
IC50 [1, 3]: < 0.1 µM | IC50 [2, 4]: < 0.1 µM

CC(C)OCCOc1ccc2c(c1)[C@]1(COC(N)=N1)c1cc(-c3cncnc3)ccc1O2 [compound 180]
IC50 [1, 7]: 0.1 to 1 µM | IC50 [2, 8]: < 0.1 µM

NC1=N[C@]2(CO1)c1cc(C3=CCOCC3)ccc1Oc1cc(F)c(-c3cncnc3)cc12 [compound 529]
IC50 [1, 9]: < 0.1 µM | IC50 ([2]; read-out: BACE1 FRET assay): < 0.1 µM

COc1ccc2c(c1)C1(COC(N)=N1)c1cc(-c3cc(Cl)c(C)cc3F)ccc1O2 (stereo not drawn) [Example 23, 2′-(5-chloro-2-fluoro-4-methylphenyl)-7′-methoxyspiro[1,3-oxazole-4,9′-xanthen]-2-amine]
IC50 [1, 10]: > 5 µM | IC50 [2, 11]: 1 to 5 µM

CC(C)(C)COc1ccc2c(c1)[C@@]1(COC(N)=N1)c1cc(-c3cccnc3F)cnc1O2 [compound 870]
IC50 [1, 5]: < 0.1 µM | IC50 [2, 6]: < 0.1 µM

CC(C)(C)COc1ccc2c(c1)[C@]1(COC(N)=N1)c1cc(C#N)ccc1O2 [compound 959]
IC50 ([1]; read-out: HEK cell assay): 1 to 5 µM | IC50 ([2]; read-out: BACE1 FRET assay): 0.1 to 1 µM

CC(C)(O)COc1ccc2c(c1)[C@]1(COC(N)=N1)c1cc(-c3cncc(F)c3)ccc1O2 [compound 224]
IC50 [1, 7]: < 0.1 µM | IC50 [2, 8]: < 0.1 µM

Cc1ccc(-c2cnc3c(c2)[C@]2(COC(N)=N2)c2cc(-c4cncnc4)ccc2O3)cc1 [compound 578]
IC50 [1, 5]: < 0.1 µM | IC50 [2, 6]: < 0.1 µM

Source: patent US8426447B2, “Spiro-tricyclic ring compounds as beta-secretase modulators and methods of use” (Amgen Inc., priority 2008, dated 2013)
